Patent US12692234B2, “Rock inhibitors and uses thereof” (Alcon Inc., priority 2024, dated 2026)

What was measured:
[1] = target: ROCK1 (Homo sapiens, UniProt Q13464); test: Kinase inhibition assay (KINASE-GLO), ROCK1; format: biochemical
[2] = target: ROCK2 (Homo sapiens, UniProt O75116); settings: read-out: Ki (nM) ROCK2
ROCK2, sequence (O75116 whole entry): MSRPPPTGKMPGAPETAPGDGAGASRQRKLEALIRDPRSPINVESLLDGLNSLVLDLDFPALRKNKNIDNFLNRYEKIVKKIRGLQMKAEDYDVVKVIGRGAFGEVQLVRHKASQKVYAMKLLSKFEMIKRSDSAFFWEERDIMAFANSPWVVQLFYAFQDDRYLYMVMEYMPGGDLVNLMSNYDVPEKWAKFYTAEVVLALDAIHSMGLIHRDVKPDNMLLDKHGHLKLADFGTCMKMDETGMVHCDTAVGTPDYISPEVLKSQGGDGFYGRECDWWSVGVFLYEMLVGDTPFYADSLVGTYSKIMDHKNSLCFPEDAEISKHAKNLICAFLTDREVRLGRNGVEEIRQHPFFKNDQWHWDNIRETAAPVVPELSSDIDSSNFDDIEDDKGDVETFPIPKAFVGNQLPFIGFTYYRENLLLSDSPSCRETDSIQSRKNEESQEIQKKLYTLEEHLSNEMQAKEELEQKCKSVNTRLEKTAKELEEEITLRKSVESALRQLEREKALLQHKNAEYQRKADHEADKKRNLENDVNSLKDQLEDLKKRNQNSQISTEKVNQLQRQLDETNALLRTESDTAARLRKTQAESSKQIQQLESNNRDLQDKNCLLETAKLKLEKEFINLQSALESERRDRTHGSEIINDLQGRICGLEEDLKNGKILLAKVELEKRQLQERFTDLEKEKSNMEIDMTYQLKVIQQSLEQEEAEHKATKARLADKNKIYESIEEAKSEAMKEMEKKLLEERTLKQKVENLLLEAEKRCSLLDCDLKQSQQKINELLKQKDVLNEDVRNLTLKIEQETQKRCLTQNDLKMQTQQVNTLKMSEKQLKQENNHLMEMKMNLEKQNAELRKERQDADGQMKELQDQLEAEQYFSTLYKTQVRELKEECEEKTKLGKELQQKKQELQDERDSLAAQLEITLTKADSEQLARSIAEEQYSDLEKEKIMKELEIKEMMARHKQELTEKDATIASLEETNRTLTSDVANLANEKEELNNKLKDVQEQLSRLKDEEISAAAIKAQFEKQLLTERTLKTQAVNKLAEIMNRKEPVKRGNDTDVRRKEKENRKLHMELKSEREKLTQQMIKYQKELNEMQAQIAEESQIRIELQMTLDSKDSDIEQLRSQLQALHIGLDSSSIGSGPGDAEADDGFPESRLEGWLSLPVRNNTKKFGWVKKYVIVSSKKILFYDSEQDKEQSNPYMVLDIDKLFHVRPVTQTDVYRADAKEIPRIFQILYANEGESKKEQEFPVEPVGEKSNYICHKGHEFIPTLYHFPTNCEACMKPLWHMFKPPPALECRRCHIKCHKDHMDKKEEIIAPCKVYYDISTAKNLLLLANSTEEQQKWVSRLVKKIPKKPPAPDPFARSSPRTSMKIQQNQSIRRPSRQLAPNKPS

ROCK1, sequence (Q13464 whole entry): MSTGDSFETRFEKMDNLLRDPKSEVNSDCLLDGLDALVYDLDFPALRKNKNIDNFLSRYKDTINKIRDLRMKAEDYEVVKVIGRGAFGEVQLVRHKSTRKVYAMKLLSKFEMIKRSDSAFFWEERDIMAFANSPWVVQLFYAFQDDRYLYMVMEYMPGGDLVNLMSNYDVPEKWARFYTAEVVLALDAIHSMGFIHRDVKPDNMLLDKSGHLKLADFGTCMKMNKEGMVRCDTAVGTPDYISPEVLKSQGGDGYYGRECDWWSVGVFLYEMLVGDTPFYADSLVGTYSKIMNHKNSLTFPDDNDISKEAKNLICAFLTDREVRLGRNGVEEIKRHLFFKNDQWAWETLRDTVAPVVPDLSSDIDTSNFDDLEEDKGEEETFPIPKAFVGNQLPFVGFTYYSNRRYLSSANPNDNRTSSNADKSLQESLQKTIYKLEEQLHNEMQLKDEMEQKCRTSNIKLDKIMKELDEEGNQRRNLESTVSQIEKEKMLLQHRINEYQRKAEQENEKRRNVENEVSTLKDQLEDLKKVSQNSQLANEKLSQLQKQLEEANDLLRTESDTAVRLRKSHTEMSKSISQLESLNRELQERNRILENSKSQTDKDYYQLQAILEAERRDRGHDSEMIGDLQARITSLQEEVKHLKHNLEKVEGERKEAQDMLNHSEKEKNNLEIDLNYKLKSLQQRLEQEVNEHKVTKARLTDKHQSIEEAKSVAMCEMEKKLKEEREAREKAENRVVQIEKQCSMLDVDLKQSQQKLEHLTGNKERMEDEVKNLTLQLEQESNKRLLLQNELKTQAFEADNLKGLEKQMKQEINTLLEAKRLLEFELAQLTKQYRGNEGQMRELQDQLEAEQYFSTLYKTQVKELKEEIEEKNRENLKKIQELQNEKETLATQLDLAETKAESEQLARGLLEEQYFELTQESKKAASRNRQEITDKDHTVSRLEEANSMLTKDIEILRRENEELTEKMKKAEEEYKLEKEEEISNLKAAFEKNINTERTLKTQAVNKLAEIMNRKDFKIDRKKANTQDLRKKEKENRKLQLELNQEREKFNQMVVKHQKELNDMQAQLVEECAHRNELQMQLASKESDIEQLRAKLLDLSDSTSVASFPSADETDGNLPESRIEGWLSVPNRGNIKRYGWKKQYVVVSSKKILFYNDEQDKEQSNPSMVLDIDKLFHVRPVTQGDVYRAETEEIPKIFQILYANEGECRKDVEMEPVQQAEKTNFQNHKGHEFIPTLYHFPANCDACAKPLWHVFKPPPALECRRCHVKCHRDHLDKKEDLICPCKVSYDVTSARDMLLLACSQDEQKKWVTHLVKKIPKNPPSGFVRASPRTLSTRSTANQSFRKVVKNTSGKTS

- Ki [1]: 0.2 nM
- Ki [2]: 0.2 nM
Structure (SMILES): NC[C@@H](C(=O)Nc1ccc2cnccc2c1)c1ccc(CO)cc1
